US6528618B1, “Anti-inflammatory peptides derived from C-reactive protein” (Yeda Research and Development Co. Ltd., priority 1997, dated 2003)
Entries after “also recorded” stand apart in the source; their conditions may differ. Where a SMILES comes first, the peptide text is derived from it.

Tests used:
[1] = target: T1, human leukocyte elastase (hLE) (Homo sapiens, UniProt P08246); test: In vitro inhibition of hLE (cleavage of MeOSuc-AAPV-NA); format: biochemical
T1 construct: Neutrophils (1.4 billion) were isolated from whole blood obtained from a single healthy laboratory donor; from tissue; host or cells: neutrophils from whole blood of a single healthy donor
T1 sequence (P08246 30-247 limits assumed): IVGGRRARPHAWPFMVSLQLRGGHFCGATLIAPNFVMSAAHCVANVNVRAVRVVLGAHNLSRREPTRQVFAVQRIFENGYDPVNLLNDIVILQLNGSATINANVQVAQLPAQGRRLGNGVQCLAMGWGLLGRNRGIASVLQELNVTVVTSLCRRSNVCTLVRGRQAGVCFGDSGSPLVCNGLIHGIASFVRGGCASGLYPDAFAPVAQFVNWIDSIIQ
Method: (§1) The enzymatic activity was assayed with MeOSuc-AAPV-NA for hLE determination and Suc-AAPF-NA for hCG determination (both in 100 mM Hepes buffer, pH 7.4, containing 0.05% of the […] detergent Brij-35). The activities of the individual enzymatic fractions were 100% free from cross-contamination. […] The fractions containing hLE and hCG were dialyzed each against 0.1% pyridinium acetate, pH 5.3, divided into 20 aliquots, lyophilized, and stored at −20 ° C. until use.
(v) Inhibition experiments with hLE: Peptides were dissolved in 100 mM Hepes buffer pH 7.4 containing 0.1% Brij-35 with 10%. DMSO to yield 300 μM solutions, which were used to make further dilutions with the same buffer, and 80 μL aliquots were added in duplicates to 96-well plates. The substrate, 600 μM MeOSuc-AAPV-NA in the same buffer with 5% DMSO, was added to each well in addition to the blank wells, and the plate was placed in the plate reader equilibrated to 37 C (Dynateck MR-6000). Lyophilized aliquots of hLE were dissolved in 1600 μL of 100 mM Hepes buffer without DMSO, and 80 μL of the enzyme solution was added to the peptides and substrate to initiate the reaction. […] The final volume was 240 μL containing: 5% DMSO, 1-100 μM of peptide, 200 μM substrate, and 0.75 μg (˜25 picomol) enzyme.
(viii) Calculations: For hLE, V is determined by fitting a linear equation to the first 6 time-points (10 min) of the kinetics data using the least squares method. […] Several inhibitor concentration in duplicates and two control wells were used to fit a linear equation to graphs of Vo/Vi−1 vs. [I] for each inhibitor using the least squares method (8 data points for each inhibitor). From calculating the error in the slope of the equation, the relative error for Ki was deduced:
Ki={slope*(1+[S]/Km)}^−1because Ki=[I]*{(1+[S]/Km)*(Vo/Vi−1)}^−1.
The hLE inhibitory capability of CRP-derived peptides was evaluated by inhibiting the enzymatic cleavage of MeOSuc-AAPV-NA as described in Materials and Methods (section v).

[2] = target: T2, human leukocyte cathepsin G (hCG) (Homo sapiens, UniProt P08311); test: In vitro inhibition of hCG (cleavage of Suc-AAPF-NA); format: biochemical
T2 construct: Neutrophils (1.4 billion) were isolated from whole blood obtained from a single healthy laboratory donor; from tissue; host or cells: neutrophils from whole blood of a single healthy donor
T2 sequence (P08311 21-243 limits assumed): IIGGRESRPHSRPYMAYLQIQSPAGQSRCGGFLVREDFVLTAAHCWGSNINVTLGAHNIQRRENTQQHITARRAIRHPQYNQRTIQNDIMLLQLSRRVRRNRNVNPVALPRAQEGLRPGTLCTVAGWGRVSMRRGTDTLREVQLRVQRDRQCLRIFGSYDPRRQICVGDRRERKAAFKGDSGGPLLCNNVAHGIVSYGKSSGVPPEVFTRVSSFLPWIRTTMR
Method: as §1
vi) Inhibition experiments with hCG: Similar conditions to hLE inhibition experiments were used except the substrate: 80 μL of 1.80 mM Suc-AAPF-NA. The enzyme was dissolved in 800 μL buffer, and the reaction was monitored every 6 min for 1 hour. The final volume was 240 μL containing: 5% DMSO, 1-100 μM peptide, 600 μM substrate, and 1.2 μg enzyme (about 40 picomol).
For hCG, V is determined by fitting a quadratic equation to the total kinetic data (60 min), using the least squares method and calculating V at t=0.
The hCG inhibitory capability of CRP-derived peptides was evaluated by inhibiting the enzymatic cleavage of Suc-AAPF-NA as described in Materials and Methods (section vi).

[3] = hLE Ki [μM], Table 1, substrate MeOSuc-AAPV-NA 200 μM, pH 7.4, 37 C
[4] = hCG Ki [μM], Table 1, substrate Suc-AAPF-NA 600 μM, pH 7.4
[5] = hLE Ki [μM], Table 2, substrate MeOSuc-AAPV-NA 200 μM, pH 7.4, 37 C
[6] = hCG Ki [μM], Table 2, substrate Suc-AAPF-NA 600 μM, pH 7.4

Row | hCG inhibitory activity (in words) [2] | SMILES | Ki [1, 3] [µM] | Ki [2, 4] [µM] | hLE inhibitory activity (in words) [1] | Ki [1, 5] [µM] | Ki [2, 6] [µM] | also measured
1 | – | CC[C@H](C)[C@H](NC(=O)[C@H](CC(=O)O)NC(=O)[C@H](CCCCN)NC(=O)[C@H](CO)NC(=O)[C@@H](N)Cc1c[nH]c2ccccc12)C(=O)NCC(=O)N[C@@H](Cc1ccc(O)cc1)C(=O)N[C@@H](CO)C(=O)N[C@@H](Cc1ccccc1)C(=O)N[C@H](C(=O)N[C@H](C(=O)NCC(=O)NCC(=O)N[C@@H](CO)C(=O)N[C@@H](CCC(=O)O)C(=O)O)C(C)C)[C@@H](C)O [Peptide 7, Trp-Ser-Lys-Asp-Ile-Gly-Tyr-Ser-Phe-Thr-Val-Gly-Gly-Ser-Glu] (H-WSKDIGYSFTVGGSE-OH) | > 200 | > 200 | – | – | – | –
2 | – | CC[C@H](C)[C@H](NC(=O)[C@H](CCC(=O)O)NC(=O)[C@H](CO)NC(=O)CNC(=O)CNC(=O)[C@@H](NC(=O)[C@@H](NC(=O)[C@H](Cc1ccccc1)NC(=O)[C@H](CO)NC(=O)[C@H](Cc1ccc(O)cc1)NC(=O)CN)[C@@H](C)O)C(C)C)C(=O)N[C@@H](CC(C)C)C(=O)N[C@@H](Cc1ccccc1)C(=O)N[C@@H](CCC(=O)O)C(=O)N[C@H](C(=O)O)C(C)C [Peptide 8, Gly-Tyr-Ser-Phe-Thr-Val-Gly-Gly-Ser-Glu-Ile-Leu-Phe-Glu-Val] (H-GYSFTVGGSEILFEV-OH) | > 200 | > 200 | – | – | – | –
3 | – | CC[C@H](C)[C@H](NC(=O)[C@H](CCC(=O)O)NC(=O)[C@H](CO)NC(=O)CNC(=O)CNC(=O)[C@@H](N)C(C)C)C(=O)N[C@@H](CC(C)C)C(=O)N[C@@H](Cc1ccccc1)C(=O)N[C@@H](CCC(=O)O)C(=O)N[C@H](C(=O)N1CCC[C@H]1C(=O)N[C@@H](CCC(=O)O)C(=O)N[C@H](C(=O)N[C@H](C(=O)N[C@H](C(=O)O)C(C)C)[C@@H](C)O)C(C)C)C(C)C [Peptide 9, Val-Gly-Gly-Ser-Glu-Ile-Leu-Phe-Glu-Val-Pro-Glu-Val-Thr-Val] (H-VGGSEILFEVPEVTV-OH) | > 200 | > 200 | – | – | – | –
4 | – | CC[C@H](C)[C@H](N)C(=O)N[C@@H](CC(C)C)C(=O)N[C@@H](Cc1ccccc1)C(=O)N[C@@H](CCC(=O)O)C(=O)N[C@H](C(=O)N1CCC[C@H]1C(=O)N[C@@H](CCC(=O)O)C(=O)N[C@H](C(=O)N[C@H](C(=O)N[C@H](C(=O)N[C@@H](C)C(=O)N1CCC[C@H]1C(=O)N[C@H](C(=O)N[C@@H](Cc1c[nH]cn1)C(=O)N[C@H](C(=O)O)[C@@H](C)CC)C(C)C)C(C)C)[C@@H](C)O)C(C)C)C(C)C [Peptide 10, Ile-Leu-Phe-Glu-Val-Pro-Glu-Val-Thr-Val-Ala-Pro-Val-His-Ile] (H-ILFEVPEVTVAPVHI-OH; N-terminus and C-terminus assumed) | – | – | two orders of magnitude less potent than peptide 6 | – | – | Ki ([1]; hLE inhibitory activity range): 50 to 100 µM; Ki ([2]; hCG inhibitory activity range): 150 to 200 µM
5 | dramatic loss | CC[C@H](C)[C@H](N)C(=O)N[C@@H](CC(C)C)C(=O)N[C@H](C(=O)N[C@@H](Cc1ccccc1)C(=O)N[C@@H](Cc1c[nH]c2ccccc12)C(=O)N[C@@H](CO)C(=O)N[C@@H](CCCCN)C(=O)N[C@@H](CC(=O)O)C(=O)N[C@H](C(=O)NCC(=O)N[C@@H](Cc1ccc(O)cc1)C(=O)N[C@@H](CO)C(=O)N[C@@H](Cc1ccccc1)C(=O)N[C@H](C(=O)O)[C@@H](C)O)[C@@H](C)CC)[C@@H](C)CC [Peptide 11, Ile-Leu-Ile-Phe-Trp-Ser-Lys-Asp-Ile-Gly-Tyr-Ser-Phe-Thr] (H-ILIFWSKDIGYSFT-OH; N-terminus and C-terminus assumed) | – | – | dramatic loss | – | – | fold decrease in hLE inhibitory activity compared to peptide 6 ([1]; relative to peptide 6): around 20 fold
6 | – | CC[C@H](C)[C@H](N)C(=O)N[C@@H](Cc1ccccc1)C(=O)N[C@@H](Cc1c[nH]c2ccccc12)C(=O)N[C@@H](CO)C(=O)N[C@@H](CCCCN)C(=O)N[C@@H](CC(=O)O)C(=O)N[C@H](C(=O)NCC(=O)N[C@@H](Cc1ccc(O)cc1)C(=O)N[C@@H](CO)C(=O)N[C@@H](Cc1ccccc1)C(=O)N[C@H](C(=O)O)[C@@H](C)O)[C@@H](C)CC [Peptide 12, Ile-Phe-Trp-Ser-Lys-Asp-Ile-Gly-Tyr-Ser-Phe-Thr] (H-IFWSKDIGYSFT-OH) | – | – | totally abolished the inhibitory activity | > 200 | > 200 | –
7 | diminished inhibitory activity | CC[C@H](C)[C@H](NC(=O)[C@H](CC(=O)O)NC(=O)[C@H](CCCCN)NC(=O)[C@H](CO)NC(=O)[C@H](Cc1c[nH]c2ccccc12)NC(=O)[C@H](Cc1ccccc1)NC(=O)[C@@H](NC(=O)[C@H](CC(C)C)NC(=O)[C@@H](NC(=O)[C@@H](N)CCC(=O)O)[C@@H](C)CC)[C@@H](C)CC)C(=O)NCC(=O)N[C@@H](Cc1ccc(O)cc1)C(=O)O [Peptide 13, Glu-Ile-Leu-Ile-Phe-Trp-Ser-Lys-Asp-Ile-Gly-Tyr] (H-EILIFWSKDIGY-OH; N-terminus and C-terminus assumed) | – | – | diminished hLE inhibitory activity | – | – | –
8 | retain significant inhibitory activity | CC[C@H](C)[C@H](NC(=O)[C@H](CC(=O)O)NC(=O)[C@H](CCCCN)NC(=O)[C@H](CO)NC(=O)[C@H](Cc1c[nH]c2ccccc12)NC(=O)[C@H](Cc1ccccc1)NC(=O)[C@@H](NC(=O)[C@H](CC(C)C)NC(=O)[C@@H](NC(=O)[C@@H](N)CCC(=O)O)[C@@H](C)CC)[C@@H](C)CC)C(=O)O [Peptide 14, Glu-Ile-Leu-Ile-Phe-Trp-Ser-Lys-Asp-Ile] (H-EILIFWSKDI-OH; N-terminus and C-terminus assumed) | – | – | still retains significant inhibitory activity; also recorded: retain significant inhibitory activity | – | – | –
9 | – | CC[C@H](C)[C@H](NC(=O)[C@H](CC(C)C)NC(=O)[C@@H](NC(=O)[C@@H](N)CCC(=O)O)[C@@H](C)CC)C(=O)N[C@@H](Cc1ccccc1)C(=O)N[C@@H](Cc1c[nH]c2ccccc12)C(=O)N[C@@H](CO)C(=O)N[C@@H](CCCCN)C(=O)O [Peptide 15, Glu-Ile-Leu-Ile-Phe-Trp-Ser-Lys] (H-EILIFWSK-OH) | – | – | total loss of inhibitory activity | > 200 | > 200 | –
10 | – | CC[C@H](C)[C@H](NC(=O)[C@H](CC(=O)O)NC(=O)[C@H](CCCCN)NC(=O)[C@@H](N)CO)C(=O)NCC(=O)N[C@@H](Cc1ccc(O)cc1)C(=O)N[C@@H](CO)C(=O)O [Peptide 16, Ser-Lys-Asp-Ile-Gly-Tyr-Ser] (H-SKDIGYS-OH) | – | – | totally inactive | > 200 | > 200 | –
